For orientation: MIC means the lowest concentration that inhibits growth of the organism. Lower therefore signals greater potency.

Holding throughout (assay type): functional
One assay concerns Escherichia coli. As to the kind of experiment: Antimicrobial activity against gram negative Escherichia coli (EC14) was determined.
The subject of assay [1] is Staphylococcus aureus. As to the kind of experiment: Antimicrobial activity against gram positive Staphylococcus aureus (V41) was determined.
In assay [2] the test system is Staphylococcus aureus. As to the kind of experiment: Antimicrobial activity against gram positive Staphylococcus aureus (X1.1) was determined.
For another assay, the system named is Streptococcus pneumoniae. The assay is described as follows: Antimicrobial activity against gram positive Streptococcus pneumoniae (PARK) was determined.
Assay [3] concerns Staphylococcus epidermidis. As to the kind of experiment: Antimicrobial activity against gram positive Staphylococcus epidermidis (222) was determined.

≈ marks a conversion by molar mass, not a printed value.

For `O=C(COc1ccccc1)N[C@@H]1C(=O)N2C(C(=O)O)=C(OP(=O)(O)O)CC[C@H]12`, the minimum inhibitory concentration (MIC) was greater than 128 µg/mL with Escherichia coli; greater than 128 µg/mL in the assay on Staphylococcus aureus [1]; 64 µg/mL (≈ 155 µM) against Staphylococcus aureus [2]; greater than 128 µg/mL in the assay on Streptococcus pneumoniae; greater than 128 µg/mL in assay [3].
With `CCCCOP(=O)(OCCCC)OC1=C(C(=O)[O-])N2C(=O)[C@@H](NC(=O)COc3ccccc3)[C@H]2CC1.[Na+]`, the MIC against Escherichia coli is greater than 128 µg/mL; in the assay with Staphylococcus aureus [1], 64 µg/mL; in the assay on Staphylococcus aureus [2], 0.5 µg/mL; in the assay with Streptococcus pneumoniae, 0.03 µg/mL; in assay [3], 1 µg/mL.
On to `CCOP(=O)(OCC)OC1=C(C(=O)[O-])N2C(=O)[C@@H](NC(=O)COc3ccccc3)[C@H]2CC1.[Na+]`, for which the MIC was 64 µg/mL against Escherichia coli; 2 µg/mL with Staphylococcus aureus [1]; 0.25 µg/mL in the assay on Staphylococcus aureus [2]; 0.25 µg/mL with Streptococcus pneumoniae; 1 µg/mL in assay [3].
For the compound `COP(=O)(OC)OC1=C(C(=O)[O-])N2C(=O)[C@@H](NC(=O)COc3ccccc3)[C@H]2CC1.[Na+]`, the MIC against Escherichia coli came out at 64 µg/mL; in the assay on Staphylococcus aureus [1] it was 2 µg/mL; with Staphylococcus aureus [2] it was 0.5 µg/mL; in the assay with Streptococcus pneumoniae it was 0.5 µg/mL; in assay [3], 1 µg/mL.
Consider `CC1(C)S[C@@H]2[C@H](NC(=O)COc3ccccc3)C(=O)N2[C@H]1C(=O)O` [PENICILLIN V], for which the MIC in the assay on Escherichia coli was determined as 128 µg/mL (≈ 365 µM); in the assay on Staphylococcus aureus [1], 16 µg/mL (≈ 45.7 µM); in the assay with Staphylococcus aureus [2] it was 0.06 µg/mL (≈ 0.171 µM); in the assay with Streptococcus pneumoniae, 0.06 µg/mL (≈ 0.171 µM); in assay [3], 0.125 µg/mL (≈ 0.357 µM).
Take `N[C@@H](C(=O)N[C@@H]1C(=O)N2C(C(=O)O)=C(Cl)CC[C@H]12)c1ccccc1` [LORACARBEF ANHYDROUS]: the MIC amounted to 0.05 µg/mL (≈ 0.143 µM) against Escherichia coli; 4 µg/mL (≈ 11.4 µM) in the assay on Staphylococcus aureus [1]; 2 µg/mL (≈ 5.72 µM) in the assay with Staphylococcus aureus [2]; 1 µg/mL (≈ 2.86 µM) against Streptococcus pneumoniae; 2 µg/mL (≈ 5.72 µM) in assay [3].

The values are drawn from ChEMBL document CHEMBL1127137, “3-phosphono-1-carba-1-dethiacephalosporins as antibacterial agents” (1993).
